A word on the ΔTm: it is the shift of the melting midpoint relative to a reference.

Assay [1] deals with poly rA—poly rU; prAprU (RNA, polymer) A/U. Kind of assay: UV thermal denaturation at 260 nm. The note with it: Na+ (sodium cacodylate, I = 0.05 M); pH 7.0; r = [compound]/[polynucleotide] = 0.1; error ±0.5 °C; per base.
Assay [2] deals with poly dGdC—poly dGdC; p(dGdC)2 (DNA, polymer) GC. Put plainly: UV/vis titration, Scatchard (McGhee-von Hippel) fit. The note with it: Na+ (sodium cacodylate, I = 0.05 M); pH 7.0, 25 °C; n fixed 0.2; polynucleotide concentration as phosphates; per base.
Assay [3] deals with poly dAdT—poly dAdT; p(dAdT)2 (DNA, polymer) AT. Described as above. The conditions noted are these: Na+ (sodium cacodylate, I = 0.05 M); pH 7.0, 25 °C; n fixed 0.2; polynucleotide concentration as phosphates; per base.
Assay [4] concerns poly rA—poly rU; prAprU (RNA, polymer) A/U. The description is as above. The note with it: Na+ (sodium cacodylate, I = 0.05 M); pH 7.0, 25 °C; n fixed 0.2; polynucleotide concentration as phosphates; per base.
Assay [5] concerns poly dAdT—poly dAdT; p(dAdT)2 (DNA, polymer) AT. Kind of assay: UV thermal denaturation at 260 nm. The conditions noted are these: Na+ (sodium cacodylate, I = 0.05 M); pH 7.0; r = [compound]/[polynucleotide] = 0.1; error ±0.5 °C; per base.
The subject of assay [6] is poly rA—poly rU; prAprU (RNA, polymer) A/U. Kind of assay: fluorimetric titration, Scatchard (McGhee-von Hippel) fit. The note with it: Na+ (sodium cacodylate, I = 0.05 M); pH 7.0, 25 °C; n fixed 0.2; polynucleotide concentration as phosphates; per base.
The test system of assay [7] is poly dGdC—poly dGdC; p(dGdC)2 (DNA, polymer) GC. Described as above. The conditions noted are these: Na+ (sodium cacodylate, I = 0.05 M); pH 7.0, 25 °C; n fixed 0.2; polynucleotide concentration as phosphates; per base.
Assay [8] deals with poly dAdT—poly dAdT; p(dAdT)2 (DNA, polymer) AT. The assay is described as above. The note with it: Na+ (sodium cacodylate, I = 0.05 M); pH 7.0, 25 °C; n fixed 0.2; polynucleotide concentration as phosphates; per base.

As for `Cc1cc(-c2ccc(-c3ccc(-c4cc(C)c(B(c5c(C)cc([N+](C)(C)C)cc5C)c5c(C)cc([N+](C)(C)C)cc5C)c(C)c4)cc3)cc2)cc(C)c1B(c1c(C)cc([N+](C)(C)C)cc1C)c1c(C)cc([N+](C)(C)C)cc1C`, the ΔTm amounted to 12.1 °C in assay [1] and 6.7 °C in assay [5]. Besides, the figures for the logKs in assay [2], in assay [3] and in assay [4] were 6.0, 6.1 and 7.5, respectively.
In the case of `Cc1cc(-c2cc3ccc4cc(-c5cc(C)c(B(c6c(C)cc([N+](C)(C)C)cc6C)c6c(C)cc([N+](C)(C)C)cc6C)c(C)c5)cc5ccc(c2)c3c45)cc(C)c1B(c1c(C)cc([N+](C)(C)C)cc1C)c1c(C)cc([N+](C)(C)C)cc1C`, the ΔTm in assay [1] was found to be 7.4 °C; in assay [5] it was 9.6 °C. For the same compound, the logKs in assay [6] came out at 7.4; in assay [7], 8.0; in assay [8], 8.7.
As to `Cc1cc(-c2ccc3c(c2)Cc2cc(-c4cc(C)c(B(c5c(C)cc([N+](C)(C)C)cc5C)c5c(C)cc([N+](C)(C)C)cc5C)c(C)c4)ccc2-3)cc(C)c1B(c1c(C)cc([N+](C)(C)C)cc1C)c1c(C)cc([N+](C)(C)C)cc1C`, the values for the ΔTm in assay [1] and in assay [5] were 9.3 °C and 8.2 °C, respectively. Moreover, the logKs in assay [6] amounted to 7.9; in assay [7], 7.4; in assay [8] it was 6.9.

The values above are taken from PMC10254923 (2023).
